Experimental data taken from US10265310B2, “6-membered cyclic amines or lactames substituted with urea and phenyl” (GRÜNENTHAL GMBH, priority 2016, dated 2019).

Columns and labels:
FPR2 = FPR2 (Homo sapiens (Human), UniProt P25090); assay: Agonistic activity (calcium FLIPR) in hFPR2-Aq-CHO cells; assay type: cell-based; settings: FLIPR Calcium 5 dye fluorescence, agonistic response
Method: (§1) Cells (hFPR1-Gα15-CHO or hFPR2-Aq-CHO) are suspended in 10 mL of respective complete medium (F12(1×) HAM media; 10% HI-FBS; 0.1 mg/ml Hygromycin B and 0.2 mg/ml Zeocin [for hFPR1 only]; 0.4 mg/mL Geneticin and 0.25 mg/ml Zeocin [for hFPR2-Aq only]) and viability is checked using Trypan Blue exclusion. After washing, the cells are plated at 10,000 cells per well in 40 μL complete medium in a 384-well sterile clear bottom black plate and incubated in a 5% CO2 incubator at 37° C. for 18 hours. Plating media is removed from each well by decanting and gentle tapping before 30 μL of 0.5× Calcium 5 dye solution (0.5×FLIPR Calcium 5 dye (Molecular devices, R8186)); HBSS; 20 mM HEPES; 2.5 mM Probenecid; 0.025% Pluronic F-127; pH adjusted to 7.4) is added to each well and the plate is then incubated at 37° C. for 30 minutes. For the assay the plate is equilibrated at room temperature for 10 minutes before placing it in the FLIPR. Compounds are dissolved in DMSO and serially diluted over an 11 point half log (3.16 fold) dilution (2 mM to 20 nM). Compounds are then diluted 1:50 in assay buffer (HBSS; 20 mM HEPES; 2.5 mM Probenecid; 0.05% gelatin; 0.1% BSA; pH adjusted to 7.4) just before performing the assay. Compounds are finally added to the respective wells of the cell plate (final assay concentration 10 μM to 100 pM) using the FLIPR (e.g. FLIPR-Tetra, Molecular Devices) and fluorescence readings are captured for 5 minutes. The increase in fluorescence from the basal reading in the presence of the compounds is compared with that of the control wells (wells having no compound) to calculate the activity of the compounds. The EC50 values of the compounds can be determined using e.g. Graph pad Prism software.
(§2) Assay Method for Measuring Agonistic Activity of Compounds in hFPR1-Gα15-CHO and hFPR2-Aq-CHO Cell
(§3) Cryo-vial containing 6×10^6 cells (hFPR1-Gα15-CHO or hFPR2-Aq-CHO) was thawed in a 37° C. water bath. Cells were suspended in 10 ml of respective complete growth media (F12(1×) HAM media (Gibco; Cat#11765); 10% HI-FBS (Gibco; Cat#10082); 0.1 mg/ml Hygromycin B (Invitrogen; Cat#10687-010) [for hFPR1 only]; 0.2 mg/ml Zeocin (Invitrogen; Cat#R25001) [for hFPR1 only]; 0.4 mg/ml Geneticin (Gibco; Cat#10131) [for hFPR2-Aq only]; 0.25 mg/ml Zeocin (Invitrogen; Cat#R25001) [for hFPR2-Aq only]) in a 15 ml centrifuge tube. The cell viability was checked with the help of Trypan Blue dye. Upon washing the cells, those were plated in a 384-well sterile clear bottom black plate (Greiner Bioone Cat#781091) so that, each well contained 10,000 cells in 40 μl complete growth media. The plate was incubated in a 5% CO2 incubator at 37° C. for 18 hours.
(§4) Before assay on the next day, the cell plating media was removed from each well of the plate by decanting and gentle tapping. 30 μl, 0.11 of 0.5× Calcium 5 dye solution (0.5×FLIPR Calcium 5 dye (Molecular devices Cat# R8186); HBSS (Invitrogen; Cat#14025); 20 mM HEPES (Sigma; Cat#H0887); 2.5 mM Probenecid (Sigma; Cat#P8761); 0.025% Pluronic F-127 (Sigma; Cat#P2443); pH adjusted to 7.4) was added to each well. The plate was then incubated at 37° C. for 30 minutes. Following which the plate was equilibrated at room temperature for 10 minutes before placing it in a 384 well FLIPR for assay. Compounds were dissolved in DMSO and serially diluted following 11 point half log (3.16 fold) dilution with a starting concentration of 2 mM (Final assay concentration 10 μM). Aliquots of above mentioned each dilution was mixed with assay buffer (HBSS (Invitrogen; Cat#14025); 20 mM HEPES (Sigma; Cat#H0887); 2.5 mM Probenecid (Sigma; Cat#P8761); 0.05% gelatin (Sigma; Cat#G1890); 0.1% BSA (Sigma; Cat#A3059); pH adjusted to 7.4) just before performing the assay. Compounds were added to the respective wells of the assay ready cell plate with the help of the FLIPR (FLIPR Tetra) and fluorescence readings were captured for 5 minutes to measure any agonistic response of the compounds. […]

FPR1 = FPR1 (Homo sapiens (Human), UniProt P21462); assay: Agonistic activity (calcium FLIPR) in hFPR1-Gα15-CHO cells; assay type: cell-based; settings: FLIPR Calcium 5 dye fluorescence, agonistic response
Method: as §1, §2, §3, §4

Chain of FPR2 (P25090 whole entry): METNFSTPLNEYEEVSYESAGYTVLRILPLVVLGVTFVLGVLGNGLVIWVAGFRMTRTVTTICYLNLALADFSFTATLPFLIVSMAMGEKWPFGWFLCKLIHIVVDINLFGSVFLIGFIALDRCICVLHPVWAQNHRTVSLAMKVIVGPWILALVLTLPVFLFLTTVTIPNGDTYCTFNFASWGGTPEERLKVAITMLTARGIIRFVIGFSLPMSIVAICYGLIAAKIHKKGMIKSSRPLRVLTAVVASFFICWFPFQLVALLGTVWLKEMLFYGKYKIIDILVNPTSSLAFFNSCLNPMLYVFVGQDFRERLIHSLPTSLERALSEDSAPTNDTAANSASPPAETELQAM
Chain of FPR1 (P21462 whole entry): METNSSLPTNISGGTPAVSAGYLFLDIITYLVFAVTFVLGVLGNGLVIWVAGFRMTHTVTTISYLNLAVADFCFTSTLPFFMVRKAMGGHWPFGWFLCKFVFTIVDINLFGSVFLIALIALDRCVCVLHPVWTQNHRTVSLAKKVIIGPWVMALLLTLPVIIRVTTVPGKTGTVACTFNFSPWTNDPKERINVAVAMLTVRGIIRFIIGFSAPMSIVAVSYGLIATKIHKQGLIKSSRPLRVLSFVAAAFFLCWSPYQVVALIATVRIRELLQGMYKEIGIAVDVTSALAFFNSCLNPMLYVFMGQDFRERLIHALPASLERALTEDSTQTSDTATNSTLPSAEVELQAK

Row | Molecule | EC50 (FPR2) [nM] | EC50 (FPR1) [nM]
1 | CCc1cc(F)c([C@@H]2CC(=O)NC[C@H]2NC(=O)Nc2ccc(Cl)cc2)c(F)c1 (racemic) [Example 69, rac-trans-1-(4-chlorophenyl)-3-(4-(4-ethyl-2,6-difluorophenyl)-6-oxopiperidin-3-yl)urea] | 1 to 1000 | 1 to 1000
2 | COc1ccc(C2C(NC(=O)Nc3ccc(Cl)cc3)CCCN2C)cc1 (single isomer, unassigned; dia2) [Example 90, dia2-1-(4-chlorophenyl)-3-(2-(4-methoxyphenyl)-1-methylpiperidin-3-yl)urea] | 1 to 1000 | 1 to 1000
3 | COc1cc(F)c([C@@H]2CC(=O)NC[C@H]2NC(=O)Nc2ncc(Cl)s2)c(F)c1 (racemic) [Example 56, rac-trans-1-(5-Chloro-thiazol-2-yl)-3-[4-(2,6-difluoro-4-methoxy-phenyl)-6-oxo-piperidin-3-yl]-urea] | 1 to 1000 | 1 to 1000
4 | COc1cc(F)c(C2CCN(C(=O)C3CC3)CC2NC(=O)Nc2ccc(Cl)cc2)c(F)c1 (single isomer, unassigned; ent1) [Example 39, trans-ent1-1-(4-chlorophenyl)-3-(1-(cyclopropanecarbonyl)-4-(2,6-difluoro-4-methoxyphenyl)piperidin-3-yl)urea] | < 1 | 1 to 1000
5 | O=C(Nc1ccc(Cl)cc1)NC1CN(C(=O)C2CC2)CCC1c1ccccc1 (single isomer, unassigned; ent2) [Example 84, trans-ent2-1-(4-chlorophenyl)-3-(1-(cyclopropanecarbonyl)-4-phenylpiperidin-3-yl)urea] | 1 to 1000 | 1 to 1000
6 | ent1-1-(4-chlorophenyl)-3-(4-(2-fluoro-4-methoxyphenyl)piperidin-3-yl)urea [Example 45] | < 1 | 1 to 1000
7 | COc1cc(F)c([C@@H]2CC(=O)N(CCO)C[C@H]2NC(=O)Nc2ccc(Cl)cc2)c(F)c1 (racemic) [Example 31, rac-trans-1-(4-chlorophenyl)-3-(4-(2,6-difluoro-4-methoxyphenyl)-1-(2-hydroxyethyl)-6-oxopiperidin-3-yl)urea] | < 1 | 1 to 1000
8 | COc1cc(F)c(C2CC(=O)NCC2NC(=O)Nc2ccncc2)c(F)c1 (single isomer, unassigned; ent2) [Example 48, ent2-1-(4-(2,6-difluoro-4-methoxyphenyl)-6-oxopiperidin-3-yl)-3-(pyridin-4-yl)urea] | 1 to 1000 | 1 to 1000
9 | CSc1ccc([C@@H]2CC(=O)NC[C@H]2NC(=O)Nc2ccc(Cl)cc2)cc1 (racemic) [Example 72, rac-trans-1-(4-chlorophenyl)-3-(4-(4-(methylthio)phenyl)-6-oxopiperidin-3-yl)urea] |  | 1 to 1000

Next, values leading:

Row | EC50 (FPR2) [nM] | EC50 (FPR1) [nM] | Molecule
10 | 1 to 1000 | 1 to 1000 | COCCN1CC(NC(=O)Nc2ccc(Cl)cc2)C(c2ccc(OC)cc2F)CC1=O (single isomer, unassigned; ent2) [Example 60, trans-ent2-1-(4-Chlorophenyl)-3-[4-(2-fluoro-4-methoxy-phenyl)-1-(2-methoxy-ethyl)-6-oxo-piperidin-3-yl]-urea]
11 | 1 to 1000 | 1 to 1000 | COc1cc(F)c(C2CC(=O)NCC2NC(=O)Nc2ccncc2)c(F)c1 (single isomer, unassigned; ent1) [Example 47, ent1-1-(4-(2,6-difluoro-4-methoxyphenyl)-6-oxopiperidin-3-yl)-3-(pyridin-4-yl)urea]
12 | < 1 | < 1 | COc1ccc(C2CCN(C(=O)C3CC3)CC2NC(=O)Nc2ccc(Cl)cc2)c(F)c1 (single isomer, unassigned; ent1) [Example 86, trans-ent1-1-(4-chlorophenyl)-3-(1-(cyclopropanecarbonyl)-4-(2-fluoro-4-methoxyphenyl)piperidin-3-yl)urea]
13 | 1 to 1000 | 1 to 1000 | COc1ccc(C2C(NC(=O)Nc3ccc(Cl)cc3)CCCN2C)cc1 (single isomer, unassigned; dia1) [Example 89, dia1-1-(4-chlorophenyl)-3-(2-(4-methoxyphenyl)-1-methylpiperidin-3-yl)urea]
14 | 1 to 1000 | 1 to 1000 | CCc1ccc([C@@H]2CC(=O)NC[C@H]2NC(=O)Nc2ccc(Cl)cc2)cc1 (racemic) [Example 73, rac-trans-1-(4-chlorophenyl)-3-(4-(4-ethylphenyl)-6-oxopiperidin-3-yl)urea]
15 | < 1 | < 1 | COc1ccc([C@@H]2CCN(C(=O)C3CC3)C[C@H]2NC(=O)Nc2ccc(Cl)cc2)cc1 (racemic) [Example 12, rac-trans-1-(4-chlorophenyl)-3-(1-(cyclopropanecarbonyl)-4-(4-methoxyphenyl)piperidin-3-yl)urea]
16 | < 1 | 1 to 1000 | COc1ccc(C2CC(=O)NCC2NC(=O)Nc2ccc(Cl)cc2)cc1 (single isomer, unassigned; ent1) [Example 76, trans-ent1-1-(4-chlorophenyl)-3-(4-(4-methoxyphenyl)-6-oxopiperidin-3-yl)urea]
17 | 1 to 1000 | 1 to 1000 | COc1ccc(C2CC(=O)N(CC(F)F)CC2NC(=O)Nc2ccc(Cl)cc2)c(F)c1 (single isomer, unassigned; ent2) [Example 62, trans-ent2-1-(4-Chlorophenyl)-3-[1-(2,2-difluoro-ethyl)-4-(2-fluoro-4-methoxy-phenyl)-6-oxo-piperidin-3-yl]-urea]
18 | < 1 | 1 to 1000 | COc1cc(F)c([C@@H]2CCNC[C@H]2NC(=O)Nc2ccc(Br)cc2)c(F)c1 (racemic) [Example 8, rac-trans-1-(4-bromophenyl)-3-(4-(2,6-difluoro-4-methoxyphenyl)piperidin-3-yl)urea]
19 | < 1 | < 1 | COc1ccc([C@H]2CC(=O)N(C)C[C@@H]2NC(=O)Nc2ccc(Cl)cc2)cc1 (stereo in doubt) [Example 10, trans-ent1-(4-chlorophenyl)-3-(4-(4-methoxyphenyl)-1-methyl-6-oxopiperidin-3-yl)urea]
20 | < 1 | < 1 | COc1ccc([C@@H]2CCN(C(C)=O)C[C@H]2NC(=O)Nc2ccc(Cl)cc2)cc1 (racemic) [Example 2, rac-trans-1-(1-acetyl-4-(4-methoxyphenyl)piperidin-3-yl)-3-(4-chlorophenyl)urea]
21 | < 1 | < 1 | COc1ccc([C@@H]2CCN(C(=O)CC(C)C)C[C@H]2NC(=O)Nc2ccc(Cl)cc2)cc1 (racemic) [Example 18, rac-trans-1-(4-chlorophenyl)-3-[4-(4-methoxyphenyl)-1-(3-methyl-butanoyl)-piperidin-3-yl]-urea]
22 | < 1 | < 1 | COCCC(=O)N1CC[C@@H](c2ccc(OC)cc2)[C@H](NC(=O)Nc2ccc(Cl)cc2)C1 (racemic) [Example 15, rac-trans-1-(4-chlorophenyl)-3-(4-(4-methoxyphenyl)-1-(3-methoxypropanoyl)piperidin-3-yl)urea]
